According to patent US20140288071A1, “INHIBITORS OF NOTUM […] AND METHODS OF THEIR USE” (priority 2011, published 2014):

Experiments:
[1] = molecular target: T1, human notum pectinacetyltransferase (Homo sapiens, UniProt Q6P988); assay: Reporter assay (CellSensor LEF/TCF-bla FreeStyle 293F cells, Wnt3a and notum conditioned media); assay type: cell-based
T1 construct: made in house; conditioned medium used
T1 sequence (Q6P988 20-496): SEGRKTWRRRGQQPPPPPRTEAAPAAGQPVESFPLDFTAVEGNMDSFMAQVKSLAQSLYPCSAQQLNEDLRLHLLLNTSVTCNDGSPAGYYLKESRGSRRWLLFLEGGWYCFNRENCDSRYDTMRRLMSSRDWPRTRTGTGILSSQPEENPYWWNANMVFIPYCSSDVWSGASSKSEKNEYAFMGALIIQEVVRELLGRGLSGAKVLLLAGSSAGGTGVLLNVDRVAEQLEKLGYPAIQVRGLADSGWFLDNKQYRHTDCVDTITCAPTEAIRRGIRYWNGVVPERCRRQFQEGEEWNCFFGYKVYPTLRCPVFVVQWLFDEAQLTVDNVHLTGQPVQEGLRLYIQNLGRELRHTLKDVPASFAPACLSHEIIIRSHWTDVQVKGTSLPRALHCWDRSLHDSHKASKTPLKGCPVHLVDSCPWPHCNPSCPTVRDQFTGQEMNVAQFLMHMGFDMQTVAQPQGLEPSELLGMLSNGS
Description: Plasmid containing human notum pectinacetyltransferase in pcDNA3.1(+) vector was transfected into HEK293 cells and clones were selecting by growing in presence of 400 ug/mL of G418. […] L cells overexpressing and secreting Wnt3a into the conditioned media were purchased from ATCC.
The assay protocol was as follows. […] The cell growth medium consisted of DMEM with 10% Dialyzed FBS, 5 μg/ml Blasticidin (Invitrogen, R210-01), 0.1 mM NEAA, 25 mM HEPES and 1×GPS. Cells were then trypsinized by first rinsing with PBS, followed by addition of 5 mL of trypsin and incubation of plates at room temperature for two minutes. A total of 10 mL of assay media (Opti-MEM, plus 0.5% dialyzed FBS, 0.1 mM NEAA, 1 mM sodium pyruvate, 10 mM HEPES, 1×GPS) was then added per 15 cm plate. Cells were counted and suspended at 0.75 million cells per mL. […] After incubation of cells at 37° C. for 3 hours, 10 μL of 30 mM LiCl in assay medium was added per well, followed by incubation at 37° C. for another 3 hours. […] Ten μL of the Wnt3a/notum pentinacetyltransferase mixture was then transferred from Greiner plates to each well of the 384-well plates containing the CellSensor cells. After incubation of cells overnight at 37° C., reactions were developed by addition of […] of 1×CCF4 (Invitrogen, Catalogue number K1085) to each well, covering the entire 384-well plate, and gentle rocking in the dark at room temperature for 3 hours.

[2] = molecular target: T1, human notum pectinacetyltransferase; assay: Binding assay (OPTS esterase substrate, fluorimetric); assay type: biochemical; conditions: OPTS substrate 5 μM
Description: Plasmid containing human notum pectinacetyltransferase in pcDNA3.1(+) vector was transfected into HEK293 cells and clones were selecting by growing in presence of 400 ug/mL of G418. Condition media from these cells was used for the assay.

[3] = tested on: Fischer 344 ovariectomized rats; assay: Midshaft femur and tibia cortical thickness by microCT in sham and ovariectomized rats; assay type: in vivo; conditions: target dose 30 mg/kg in diet, five weeks, ANOVA p=0.05 for treatment
From the text: The pharmacology of 2-((5-chloro-6-methylthieno[2,3-d]pyrimidin-4-yl)thio)acetic acid was studied in Fischer 344 ovariectomized rats. The rats underwent ovariectomies or sham surgery at 43 or 46 weeks of age, and treatment with the compound started at 37 or 40 weeks thereafter, at 83 weeks of age.
Four treatment groups were used: sham-surgery given control diet (N=14); sham-surgery given compound (N=12); OVX-surgery given control diet (N=14); and OVX-surgery given compound (N=12). The compound was dosed by incorporating it into the rats' diet: 0.46 grams of compound per kg of diet. The target dose was 30 mg/kg. Dosing occurred for five weeks.
Bone mass and architecture was determined by microCT, using a Scanco μCT40. […] The difference between the cortical bone thicknesses of the sham control and OVX control was −13%. Two-factor ANOVA values were: p<0.001 for OVX surgery; p=0.05 for treatment; and p=0.65 for interaction.
Two-factor ANOVA values were: p=0.79 for OVX surgery; p=0.05 for treatment; and p=0.52 for interaction.

[4] = tested on: F1 male hybrid (129×C57) mice; assay: Midshaft femur cortical thickness by microCT in treated mice; assay type: in vivo
Description: The compound was administered in the animals' diet. Four groups of mice were used: control (N=12); 25 mg/kg compound (N=9); 83 mg/kg compound (N=9); and an additional group wherein Li2CO3 was administered in the diet (0.1%) (N=9).
Midshaft femur cortical thickness was measured using a Scanco μCT40. […] For the Li2CO3 group, a decrease in cortical bone thickness of 2% (p=0.90) was observed. […]
Midshaft femur cortical thickness was measured by microCT (Scanco μCT40). […]

SMILES	EC50 [1] [nM]	IC50 [2] [nM]	increase in midshaft femur cortical bone thickness ([3]; intact (sham) rats) [%]	increase in midshaft tibia cortical thickness ([3]; intact (sham) rats) [%]	increase in midshaft femur cortical bone thickness ([3]; ovariectomized rats) [%]	increase in midshaft tibia cortical thickness ([3]; ovariectomized rats) [%]	increase in midshaft femur cortical bone thickness compared to control ([4]; first experiment, 10 mg/kg daily oral gavage, 25 days, starting at 54 weeks of age, p=0.06) [%]	increase in midshaft femur cortical bone thickness compared to control ([4]; first experiment, 100 mg/kg daily oral gavage, 25 days, starting at 54 weeks of age, p=0.03) [%]	increase in midshaft femur cortical bone thickness compared to control ([4]; second experiment, 34 mg/kg in diet, 18 days, starting at 8.1 weeks of age, p<0.01) [%]	increase in midshaft femur cortical bone thickness compared to control ([4]; second experiment, 34 mg/kg in diet, seven days, starting at 8.1 weeks of age, p=0.13) [%]
Cc1sc2ncnc(SCC(=O)O)c2c1Cl [2-((5-chloro-6-methylthieno[2,3-d]pyrimidin-4-yl)thio)acetic acid]	< 1000	< 25	3	2	5	5				
Cc1c(Cl)sc2c(SCC(=O)O)ncnc12 [2-((6-chloro-7-methylthieno[3,2-d]pyrimidin-4-yl)thio)acetic acid]	< 1000	< 25					6	7	10	6
